We go through one molecule from patent publication US20230101743A1, “SUBSTITUTED TRIAZINE COMPOUNDS AND USES THEREOF” (MUSC FOUNDATION FOR RESEARCH DEVELOPMENT, priority 2020, published 2023).

One series deals with Hepatic neutral lipid. The series is described as follows: Neutral lipid staining (BODIPY 493/503) in iPSC-derived hepatocytes. It is filed as cell-based, human. The following applies: 72 hours; DL-1 2 μg/mL, CP-346086 20 nM. As for the experimental part:
H. Human iPSC derived hepatocytes were treated with DL-1 (2 μg/mL) and MTTP inhibitor CP-346086 (20 nM) for 72 hours. […] (A) Hepatic neutral lipid was determined by staining with 2 μM of BODIPYTM 493/503 for 15 mins and fixed with 4% PFA for microscopy. Nuclei were stained blue by DAPI. Scale bar=100 μm. […] Data are shown as mean±SEM of ten replicates (n=10); ***p<0.001.
K3 iPSC-derived hepatocytes (Day 20) were treated with or without 2 μg/mL of DL-1 or 20 nM of CP-346086 (Sigma) for 72 hours with daily medium change. At the time-point of interest, cells were treated with 2 μM of BODIPY® 493/503 staining solution (ThermoFisher) and 5 μg/mL of Hoechst 33342 (ThermoFisher) in PBS at 37 degrees for 15 minutes. Cells were washed with sterile PBS three times and then fixed with 4% PFA. Fluorescence images were taken using Bio-rad Zoeυ Fluorescent Cell Imager (Bio-Rad) and KEYENCE BZ-X800E Fluorescence Microscope (KEYENCE). Integrated fluorescent intensity was normalized by total cell counts, which is determined by DAPI staining.

The subject of the next series is Intracellular APOB. The series is described as follows: Intracellular APOB accumulation (LDL uptake, pulse-chase, immunofluorescence). The class given is cell-based. The following applies: human iPSC-derived hepatocytes. As for the experimental part:
C. Human iPSC-derived hepatocytes (iPSC-Heps) were treated with 2 μg/mL of DL-1 or equivalent concentration of DMSO for 24 hours. In FIG. 7A, APOB mRNA level was determined using real-time qPCR. In FIG. 7B Intracellular APOB, LDLR, and HSP90 protein levels were determined via immunoblot; Quantification of biological replicates of immunoblots. Data are shown as mean±SD of four replicates (n=4). In FIG. 12A LDL uptake assay was performed by pre-treating cells with 2 μg/mL of DL-1, 20 μM of Atorvastatin, and equivalent concentration of DMSO for 24 hours followed by 4 hours of pHrodo-LDL exposure; LDL endocytosis was determined and quantified by fluorescence image; data are shown as mean±SD of triplicates (n=3). In FIG. 12B, iPSC-Heps were pre-treated with 3, 12, and 48 μg/mL of DL-9 for 2 hours, and cells were pulse-labeled with [^35S]methionine for 10 minutes and chased for 120 mins with or without DL-9 treatment; intracellular ^35S-APOB were determined by immunoprecipitation using anti-APOB antibody; band density was quantified and normalized with 5% of input (n=3). […]
Immunoprecipitation of cell lysates was performed using protein G magnet beads (ThermoFisher) and anti-APOB (LDL20/17, Mabtech) antibodies. […] Expression levels were quantified via integrated intensity normalized by 5% of input of each sample. […] Signals were detected using HRP-conjugated secondary antibodies. […]

Regarding `Sc1nc(S)nc(Nc2ccc(Nc3ccccc3)cc2)n1` (racemic) [DL-1, 6-{[4-(phenylamino)phenyl]amino}-1,3,5-triazine-2,4-dithiol], the “hepatic lipid accumulation (neutral lipid level)” value in the series with Hepatic neutral lipid is reported as “no impact on hepatic lipid accumulation”. Also, the “intracellular APOB accumulation” value with Intracellular APOB was “induced intracellular APOB accumulation independently of mRNA expression and LDL uptake”.
